Data from patent USRE50082E1, “(5,6-dihydro)pyrimido[4,5-e]indolizines” (NETHERLANDS TRANSLATIONAL RESEARCH CENTER B.V., priority 2014, dated 2024).

System: MOLT-4 cancer cell line
Assay: Cell proliferation assay, MOLT-4 cancer cell line (ATPlite);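 note: luminescence read-out, percent growth versus compound-free DMSO wells as maximum growth, start-of-incubation signal separating growth from cell death, IC50 from logistic curve fit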
Type: cell-based
Conditions: Homo sapiens, MOLT-4; 72 hours incubation, ATPlite 1Step; read-out: IC50 MOLT-4 cell proliferation
Description: 5 μL of compound solution was added and the plates were incubated for an additional 72 hours after which 25 μL of ATPlite 1Step™ (PerkinElmer, Groningen, The Netherlands) solution was added to each well. Luminescence was recorded on an Envision multimode reader. The cell signal at the start of incubation was recorded separately in order to distinguish between cell population growth and cell death. In addition, maximum growth was determined by incubation of a duplicate without compound in the presence of 0.4% DMSO. Percentage growth was used as the main y-axis signal. IC50s were fitted by non-linear regression using IDBS XLfit™5 using a 4-parameter logistic curve, yielding a maximum signal, minimum signal, hill-parameter and IC50.

SMILES	IC50
COc1cc(N2CCN(C)CC2)ccc1Nc1ncc2c(n1)-n1ccc(C(=O)Nc3c(C)nn(C)c3Cl)c1CC2 [Example 28, N-(5-chloro-1,3-dimethyl-pyrazol-4-yl)-2-[2-methoxy-4-(4-methylpiperazin-1-yl)anilino]-5,6-dihydropyrimido[4,5-e]indolizine-7-carboxamide]	50 to 150 nM
CCc1ccccc1NC(=O)c1ccn2c1CCc1cnc(Nc3ccc(N4CCN(C)CC4)cc3OC)nc1-2 [Example 29, N-(2-ethylphenyl)-2-[2-methoxy-4-(4-methylpiperazin-1-yl)anilino]-5,6-dihydropyrimido[4,5-e]indolizine-7-carboxamide]	50 to 150 nM
CCOc1cc(N2CCN(C)CC2)ccc1Nc1ncc2c(n1)-n1ccc(C(=O)Nc3c(CC)n[nH]c3CC)c1CC2 [Example 31, N-(3,5-diethyl-1H-pyrazol-4-yl)-2-[2-ethoxy-4-(4-methylpiperazin-1-yl)anilino]-5,6-dihydropyrimido[4,5-e]indolizine-7-carboxamide]	50 to 150 nM
CCOc1cc(N2CCN(C)CC2)ccc1Nc1ncc2c(n1)-n1ccc(C(=O)Nc3c(C)cccc3CC)c1CC2 [Example 32, 2-[2-Ethoxy-4-(4-methylpiperazin-1-yl)anilino]-N-(2-ethyl-6-methyl-phenyl)-5,6-dihydropyrimido[4,5-e]indolizine-7-carboxamide]	50 to 150 nM
Cc1cc(N2CCOCC2)ncc1Nc1ncc2c(n1)-n1ccc(C(=O)Nc3c(C)cccc3C)c1CC2 [Example 34, N-(2,6-dimethylphenyl)-2-[(4-methyl-6-morpholino-3-pyridyl)amino]-5,6-dihydropyrimido[4,5-e]indolizine-7-carboxamide]	50 to 150 nM
CCc1cccc(CC)c1NC(=O)c1ccn2c1CCc1cnc(Nc3ccc(C(=O)NC4CCN(C)CC4)cc3C)nc1-2 [Example 36, N-(2,6-diethylphenyl)-2-[2-methyl-4-[(1-methyl-4-piperidyl)carbamoyl]anilino]-5,6-dihydropyrimido[4,5-e]indolizine-7-carboxamide]	50 to 150 nM
CCc1cccc(CC)c1NC(=O)c1ccn2c1CCc1cnc(Nc3ccc(-c4cnn(C)c4)cc3OC)nc1-2 [Example 38, N-(2,6-diethylphenyl)-2-[2-methoxy-4-(1-methylpyrazol-4-yl)anilino]-5,6-dihydropyrimido[4,5-e]indolizine-7-carboxamide]	50 to 150 nM
COCCn1nc(C)c(NC(=O)c2ccn3c2CCc2cnc(Nc4ccc(OC5CCN(C)CC5)cc4OC)nc2-3)c1C [Example 44, N-[1-(2-methoxyethyl)-3,5-dimethyl-pyrazol-4-yl]-2-[2-methoxy-4-[(1-methyl-4-piperidyl)oxy]anilino]-5,6-dihydropyrimido[4,5-e]indolizine-7-carboxamide]	50 to 150 nM
CCc1cccc(CC)c1NC(=O)c1ccn2c1CCc1cnc(Nc3ccc(OCCN(C)C)cc3OC)nc1-2 [Example 52, N-(2,6-diethylphenyl)-2-[4-(2-dimethylaminoethyloxy)-2-methoxy-anilino]-5,6-dihydropyrimido[4,5-e]indolizine-7-carboxamide]	50 to 150 nM
CCc1n[nH]c(CC)c1NC(=O)c1ccn2c1CCc1cnc(Nc3ccc(OCCN(C)C)cc3OC)nc1-2 [Example 53, N-(3,5-diethyl-1H-pyrazol-4-yl)-2-[4-(2-dimethylaminoethyloxy)-2-methoxy-anilino]-5,6-dihydropyrimido[4,5-e]indolizine-7-carboxamide]	50 to 150 nM
Cc1cc(N2CCNCC2)ccc1Nc1ncc2c(n1)-n1ccc(C(=O)Nc3c(C)cccc3C)c1CC2 [Example 58, N-(2,6-dimethylphenyl)-2-(2-methyl-4-piperazin-1-yl-anilino)-5,6-dihydropyrimido[4,5-e]indolizine-7-carboxamide]	< 50 nM
COc1cc(OC2CCN(C)CC2)ccc1Nc1ncc2ccc3c(C(=O)Nc4c(C)cccc4C)ccn3c2n1 [Example 62, N-(2,6-dimethylphenyl)-2-[2-methoxy-4-[(1-methyl-4-piperidyl)oxy]anilino]pyrimido[4,5-e]indolizine-7-carboxamide]	< 50 nM

The remaining lines, values ahead:

IC50	SMILES
50 to 150 nM	COCCn1nc(C)c(NC(=O)c2ccn3c2CCc2cnc(Nc4ccc(N5CCN(C)CC5)cc4OC)nc2-3)c1C [Example 26, N-[1-(2-methoxyethyl)-3,5-dimethyl-pyrazol-4-yl]-2-[2-methoxy-4-(4-methylpiperazin-1-yl)anilino]-5,6-dihydropyrimido[4,5-e]indolizine-7-carboxamide]
50 to 150 nM	COc1cc(N2CCN(C)CC2)ccc1Nc1ncc2c(n1)-n1ccc(C(=O)Nc3c(C)n[nH]c3C)c1CC2 [Example 27, N-(3,5-dimethyl-1H-pyrazol-4-yl)-2-[2-methoxy-4-(4-methylpiperazin-1-yl)anilino]-5,6-dihydropyrimido[4,5-e]indolizine-7-carboxamide]
< 50 nM	COc1cc(C(=O)NC2CCN(C)CC2)ccc1Nc1ncc2c(n1)-n1ccc(C(=O)Nc3c(C)cccc3Cl)c1CC2 [Example 35, N-(2-chloro-6-methyl-phenyl)-2-[2-methoxy-4-[(1-methyl-4-piperidyl)carbamoyl]anilino]-5,6-dihydropyrimido[4,5-e]indolizine-7-carboxamide]
< 50 nM	Cc1cccc(C)c1NC(=O)c1ccn2c1CCc1cnc(Nc3ccc(C(=O)NC4CCN(C)CC4)cc3OC(F)F)nc1-2 [Example 37, 2-[2-(Difluoromethoxy)-4-[(1-methyl-4-piperidyl)carbamoyl]anilino]-N-(2,6-dimethylphenyl)-5,6-dihydropyrimido[4,5-e]indolizine-7-carboxamide]
< 50 nM	COc1cc(OC2CCN(C)CC2)ccc1Nc1ncc2c(n1)-n1ccc(C(=O)Nc3c(C)cccc3C)c1CC2 [Example 39, N-(2,6-dimethylphenyl)-2-[2-methoxy-4-[(1-methyl-4-piperidyl)oxy]anilino]-5,6-dihydropyrimido[4,5-e]indolizine-7-carboxamide]
< 50 nM	CCc1cccc(C)c1NC(=O)c1ccn2c1CCc1cnc(Nc3ccc(OC4CCN(C)CC4)cc3OC)nc1-2 [Example 40, N-(2-ethyl-6-methyl-phenyl)-2-[2-methoxy-4-[(1-methyl-4-piperidyl)oxy]anilino]-5,6-dihydropyrimido[4,5-e]indolizine-7-carboxamide]
< 50 nM	COc1cc(OC2CCN(C)CC2)ccc1Nc1ncc2c(n1)-n1ccc(C(=O)Nc3c(C)cccc3Cl)c1CC2 [Example 41, N-(2-chloro-6-methyl-phenyl)-2-[2-methoxy-4-[(1-methyl-4-piperidyl)oxy]anilino]-5,6-dihydropyrimido[4,5-e]indolizine-7-carboxamide]
< 50 nM	COc1cc(OC2CCN(C)CC2)ccc1Nc1ncc2c(n1)-n1ccc(C(=O)Nc3c(C)cccc3Br)c1CC2 [Example 42, N-(2-bromo-6-methyl-phenyl)-2-[2-methoxy-4-[(1-methyl-4-piperidyl)oxy]anilino]-5,6-dihydropyrimido[4,5-e]indolizine-7-carboxamide]
< 50 nM	CCc1cccc(CC)c1NC(=O)c1ccn2c1CCc1cnc(Nc3ccc(OC4CCN(C)CC4)cc3OC)nc1-2 [Example 43, N-(2,6-diethylphenyl)-2-[2-methoxy-4-[(1-methyl-4-piperidyl)oxy]anilino]-5,6-dihydropyrimido[4,5-e]indolizine-7-carboxamide]
< 50 nM	Cc1cc(OC2CCN(C)CC2)ccc1Nc1ncc2c(n1)-n1ccc(C(=O)Nc3c(C)cccc3Cl)c1CC2 [Example 46, N-(2-chloro-6-methyl-phenyl)-2-[2-methyl-4-[(1-methyl-4-piperidyl)oxy]anilino]-5,6-dihydropyrimido[4,5-e]indolizine-7-carboxamide]
< 50 nM	CCc1n[nH]c(CC)c1NC(=O)c1ccn2c1CCc1cnc(Nc3ccc(OC4CCN(C)CC4)cc3C)nc1-2 [Example 47, N-(3,5-diethyl-1H-pyrazol-4-yl)-2-[2-methyl-4-[(1-methyl-4-piperidyl)oxy]anilino]-5,6-dihydropyrimido[4,5-e]indolizine-7-carboxamide]
< 50 nM	COc1cc(OCCN(C)C)ccc1Nc1ncc2c(n1)-n1ccc(C(=O)Nc3c(C)cccc3Br)c1CC2 [Example 51, N-(2-bromo-6-methyl-phenyl)-2-[4-(2-dimethylaminoethyloxy)-2-methoxy-anilino]-5,6-dihydropyrimido[4,5-e]indolizine-7-carboxamide]
< 50 nM	Cc1cc(N2CCOCC2)ccc1Nc1ncc2c(n1)-n1ccc(C(=O)Nc3c(C)cccc3C)c1CC2 [Example 56, N-(2,6-dimethylphenyl)-2-(2-methyl-4-morpholino-anilino)-5,6-dihydropyrimido[4,5-e]indolizine-7-carboxamide]
< 50 nM	CCc1cccc(CC)c1NC(=O)c1ccn2c1CCc1cnc(Nc3ccc(OC4CCN(C)C4)cc3OC)nc1-2 (stereo not drawn) [Example 59, N-(2,6-diethylphenyl)-2-[2-methoxy-4-(1-methylpyrrolidin-3-yl)oxy-anilino]-5,6-dihydropyrimido[4,5-e]indolizine-7-carboxamide]
< 50 nM	COc1cc(N2CCN(C)CC2)ccc1Nc1ncc2c(n1)-n1ccc(C(=O)Nc3c(Cl)cccc3Cl)c1CC2 [Example 61, N-(2,6-dichlorophenyl)-2-[2-methoxy-4-(4-methylpiperazin-1-yl)anilino]-5,6-dihydropyrimido[4,5-e]indolizine-7-carboxamide]
< 50 nM	Cc1cc(N2CCN(C)CC2)ccc1Nc1ncc2c(n1)-n1ccc(C(=O)Nc3c(C)cccc3C)c1CC2 [Example 63, N-(2,6-dimethylphenyl)-2-[2-methyl-4-(4-methylpiperazin-1-yl)anilino]-5,6-dihydropyrimido[4,5-e]indolizine-7-carboxamide]
< 50 nM	CCc1cccc(C)c1NC(=O)c1ccn2c1CCc1cnc(Nc3ccc(N4CCN(C)CC4)cc3C)nc1-2 [Example 64, N-(2-ethyl-6-methyl-phenyl)-2-[2-methyl-4-(4-methylpiperazin-1-yl)anilino]-5,6-dihydropyrimido[4,5-e]indolizine-7-carboxamide]
< 50 nM	Cc1cc(N2CCN(C)CC2)ccc1Nc1ncc2c(n1)-n1ccc(C(=O)Nc3c(C)cccc3Br)c1CC2 [Example 65, N-(2-bromo-6-methyl-phenyl)-2-[2-methyl-4-(4-methylpiperazin-1-yl)anilino]-5,6-dihydropyrimido[4,5-e]indolizine-7-carboxamide]
